Test system: calcium ionophore-induced LTB4 biosynthesis
Assay: Inhibition of calcium ionophore (A23187)-induced LTB4 biosynthesis in human whole blood
Assay type: cell-based
Settings: human heparinized whole blood; 15 min preincubation at 37° C.; A23187 8.3 μM, 30 minutes; LTB4 by radioimmunoassay; read-out: IC50, inhibition of leukotriene biosynthesis in human whole blood
Description: Inhibition of leukotriene biosynthesis was evaluated in an assay, involving calcium ionophore-induced LTB4 biosynthesis expressed human whole blood. Human heparinized whole blood was preincubated with test compounds or vehicle for 15 rain at 37° C. followed by calcium ionophore A23187 challenge (final concentration of 8.3 μM) and the reaction terminated after 30 minutes by adding two volumes of methanol containing prostaglandin B2 as an internal recovery standard. The methanol extract was analyzed for LTB4 using a commercially available radioimmunoassay.

Row | IC50 | Compound
1 | 40 nM | C[C@H](/C=C\c1ccc(Cc2ccc(F)cc2)s1)N(O)C(N)=O [Example 1, Z-(R)-N-[3-(5-(4-Fluorophenylmethyl)-thien-2-yl)-1-methyl-2-propenyl]-N-hydroxyurea]
2 | 180 nM | C[C@H](/C=C/c1ccc(Cc2ccc(F)cc2)s1)N(O)C(N)=O [Example 2, E-(R)-N-[3-(5-(4-Fluorophenylmethyl)-thien-2-yl)-1-methyl-2-propenyl]-N-hydroxyurea]
